{"source": "paper PMC8578629", "about": "“Photoactivated cell-killing amino-based flavylium compounds” (Scientific Reports, 2021)", "key": {"[1]": {"experiment": "Molar absorption coefficient (ɛ) at 630 nm", "type": "physicochemical", "experimental": "The molar extinction coefficient or molar absorption (ɛ), of all synthesized pigments was determined in three different solvents (ethanol, methanol and DMSO). For each pigment, in each solvent, a range of concentrations was prepared and then the spectrum of each solution was read. Finally, the respective absorbances (collected at 630 nm) were represented as a function of concentration and the ɛ value was taken from the slope value of the equation curve."}, "[2]": {"experiment": "Oxygen singlet production by Singlet Oxygen Sensor Green assay", "settings": "compound 25 μM, after white light irradiation 79.2 J cm^−2", "experimental": "The production of singlet oxygen by the different amino-based compounds in solution was determined as follows: a stock solution of Singlet Oxygen Sensor Green was prepared at 5 mM in methanol (MeOH). Working solutions of the probe were prepared at 2 mM in 100 mM pH 7.5 Tris buffer and in 100 mM pH 7.5 Tris buffer with 10 mM of Sodium Azide. The compounds were then prepared at a stock concentration of 500 μM and the working solutions were prepared in 100 mM pH 7.5 Tris buffer and in 100 mM pH 7.5 Tris buffer with 10 mM of Sodium Azide. 1 μL of Singlet Oxygen Sensor Green working solutions and 100 μL of compounds solution were mixed to a final volume of 1000 μL (in 100 mM pH 7.5 Tris buffer or in 100 mM pH 7.5 Tris buffer with 10 mM of Sodium Azide). 100 μL of each solution was then added to a 96-well black plate and 100 μL of Deuterium Oxide was added for a final concentration of 1 μM Singlet Oxygen Sensor Green and 25 μM for the different amino-based compounds. The fluorescence was then registered in a spectrofluorometer using excitation/emission of 488/525 nm. After this procedure, the wells were irradiated with a white light source with a total of 79.2 J cm^−2, corresponding to a total irradiation time of 1 h (6 pulses of 10 min) and then, the fluorescence determined using the same excitation/emission pair. As a positive control, Methylene Blue was used at a final concentration of 10 μM. The oxygen singlet production methodology was performed in a dark room."}, "HaCaT cells [3]": {"tested_on": "HaCaT cells", "experiment": "Cellular uptake by HaCaT cells (overall uptake, adsorption/absorption ratio, kinetics)", "type": "in vitro ADME, human", "settings": "for % Uptake ± SEM: 4 h; for Uptake amount, range over the initial concentrations: 4 h incubation, 6.25–100 μM", "experimental": "The cellular uptake of the different compounds by HaCaT cells was determined following the protocol: cells were seeded at a density of 4 × 10^4 cells/well onto 12-well plates (1060 μL per well) and after 24 h the compounds were added to the plates in different concentrations (6.25–100 μM; 1060 μL per well) and incubated for a period of 4 h at 37 °C in an atmosphere of 5% CO2 and in the presence of DMEM with 2% FBS. Then, the medium with the compounds was removed, cells are washed with PBS to remove any extracellular compounds and the same volume of DMSO (1060 µL) was added to cells. After 60 min in the dark, the plates were submitted to fluorescence determination. The fluorescence intensity of each well was then recorded at the different wavelength pairs specific for each tested compound (ex/em) in a FlexStation 3 Multi-Mode Microplate Reader. The fluorescence values were then used to plot into the corresponding calibration curves and the uptake amounts were determined. • Fl577/658 = 19.734 × Conc (7NEt24′NMe2), μM; Fl577/769 = 0.2869 × Conc (7NEt2st4′NMe2), μM; • Fl577/635 = 24.556 × Conc (7NEt24′NH2), μM; Fl577/635 = 42.851 × Conc (PpIX), μM;\nThe ratio between the absorption and surface adsorption by HaCaT for each compound was performed. Cells were seeded in the same conditions as previously stated. After 24 h, compounds were added to the plates at the concentration of 100 μM (1060 μL per well) and incubated for a period of 4 h at 37 °C in an atmosphere of 5% CO2 and in the presence of DMEM with 2% FBS. After incubation, the medium with the compounds was removed and Dulbecco’s phosphate buffer (DPBS) was added (1060 μL per well). The fluorescence intensity of each well was then determined at the different wavelength pairs specific for each tested compound (ex/em) using a FlexStation 3 Multi‐Mode Microplate Reader. After this, 300 μL of Trypan Blue was added ([…]) to each well and the fluorescence intensity was determined in the same conditions. Cells with DPBS and cells with DPBS + Trypan Blue were used as controls. • Fl577/658 = 19.734 × Conc (7NEt24′NMe2), μM; Fl577/769 = 0.2869 × Conc (7NEt2st4′NMe2), μM; • Fl577/635 = 24.556 × Conc (7NEt24′NH2), μM; Fl577/635 = 42.851 × Conc (PpIX), μM;\nThe cellular uptake kinetics of the different compounds by HaCaT cells was determined as follows: cells were seeded at a density of 4 × 10^4 cells/well onto 12-well plates (1060 μL per well) and after 24 h compounds were added to the plates at a concentration of 100 μM (1060 μL per well) and incubated for different time periods (15, 30, 60, 120, 180 and 240 min) at 37 °C in an atmosphere of 5% CO2 and in the presence of DMEM with 2% FBS. After each time period, the medium with the compounds was removed and DMSO was added to cells. After 60 min in the dark the plates were submitted to fluorescence determination. The fluorescence intensity of each well was then determined at the different wavelength pairs specific for each tested compound (ex/em) (FlexStation 3 Multi-Mode Microplate Reader). The fluorescence values were then used to plot into the corresponding calibration curves and the uptake amounts were determined."}, "HaCaT cells [4]": {"tested_on": "HaCaT cells", "experiment": "Reactive oxygen species production (DCF-DA)", "type": "cell-based, human", "settings": "25 μM, 6.6 J cm^−2, versus control cells", "experimental": "Cells reactive oxygen species (ROS) production was evaluated following the standard method. Briefly, cells were seed at a density of 4 × 10^4 cells/mL onto 96 well plates and after 24 h the compounds were added at 25 μM (non-toxic concentration) and the same previous procedure for the photoactivation assays was followed. After that, cells were washed twice in Hank’s Buffered Saline Solution (HBSS) and incubated with 100 μL of 50 μM 2′,7′-dichlorodihydrofluorescein diacetate (DCF‐DA) for 30 min in the same previous conditions. For positive control, cells were treated with 100 μM H2O2 for 30 min prior to the addition of DCF-DA. Cells were then washed twice with HBSS and incubated with fresh DMEM medium for 24 h. After this period, the fluorescence intensity at […] (ex/em) was determined in a FlexStation 3 Multi-Mode Microplate Reader."}, "[5]": {"experiment": "Maximum absorption wavelength of the flavylium cation", "type": "physicochemical", "settings": "species adsorbed/absorbed in cells"}}, "data": [{"smiles": "C=CC1=C(C)c2cc3[nH]c(cc4nc(cc5[nH]c(cc1n2)c(C)c5CCC(=O)O)C(CCC(=O)O)=C4C)c(C)c3C=C", "note": "[PpIX, protoporphyrin IX, reference compound]", "values": [{"measurement": "Molar absorption coefficient ɛ at 630 nm", "setting": "[1]; DMSO", "result": 3207, "unit": "M⁻¹ cm⁻¹"}, {"measurement": "^1O2 production", "setting": "[2]", "result": "263.3 ± 12.28", "unit": "%"}, {"measurement": "% Uptake ± SEM", "setting": "HaCaT cells [3]; initial concentration 6.25 μM", "result": "0.694 ± 0.110", "unit": "%"}, {"measurement": "% Uptake ± SEM", "setting": "HaCaT cells [3]; initial concentration 12.5 μM", "result": "0.615 ± 0.050", "unit": "%"}, {"measurement": "% Uptake ± SEM", "setting": "HaCaT cells [3]; initial concentration 25 μM", "result": "0.508 ± 0.021", "unit": "%"}, {"measurement": "% Uptake ± SEM", "setting": "HaCaT cells [3]; initial concentration 50 μM", "result": "0.667 ± 0.040", "unit": "%"}, {"measurement": "% Uptake ± SEM", "setting": "HaCaT cells [3]; initial concentration 100 μM", "result": "0.659 ± 0.037", "unit": "%"}, {"measurement": "ROS production upon white light irradiation (in words)", "setting": "HaCaT cells [4]", "result": "no significant differences"}]}, {"smiles": "CCN(CC)c1ccc2ccc(/C=C/c3ccc(N(C)C)cc3)[o+]c2c1", "note": "[7NEt2st4′NMe2, 7-(diethylamino)-2-(4′-dimethylaminostyryl)-benzopyrylium]", "values": [{"measurement": "Molar absorption coefficient ɛ at 630 nm", "setting": "[1]; DMSO", "result": "15,728 M^−1 cm^−1"}, {"measurement": "Molar absorption coefficient ɛ at 630 nm", "setting": "[1]; Ethanol", "result": "16,281 M^−1 cm^−1"}, {"measurement": "Molar absorption coefficient ɛ at 630 nm", "setting": "[1]; Methanol", "result": "22,749 M^−1 cm^−1"}, {"measurement": "^1O2 production", "setting": "[2]", "result": "181.2 ± 22.23", "unit": "%"}, {"measurement": "Uptake amount, range over the initial concentrations", "setting": "HaCaT cells [3]", "result": "3.564–5.830%"}, {"measurement": "% Uptake ± SEM", "setting": "HaCaT cells [3]; initial concentration 6.25 μM", "result": "4.448 ± 0.876", "unit": "%"}, {"measurement": "% Uptake ± SEM", "setting": "HaCaT cells [3]; initial concentration 12.5 μM", "result": "4.236 ± 0.628", "unit": "%"}, {"measurement": "% Uptake ± SEM", "setting": "HaCaT cells [3]; initial concentration 25 μM", "result": "3.564 ± 0.613", "unit": "%"}, {"measurement": "% Uptake ± SEM", "setting": "HaCaT cells [3]; initial concentration 50 μM", "result": "4.091 ± 0.552", "unit": "%"}, {"measurement": "% Uptake ± SEM", "setting": "HaCaT cells [3]; initial concentration 100 μM", "result": "5.830 ± 1.569", "unit": "%"}, {"measurement": "ROS production upon white light irradiation (in words)", "setting": "HaCaT cells [4]", "result": "positive modulation of ROS production"}, {"measurement": "Maximum absorption wavelength of the flavylium cation", "setting": "[5]", "result": 672, "unit": "nm"}]}, {"smiles": "CCN(CC)c1ccc2ccc(-c3ccc(N)cc3)[o+]c2c1", "note": "[7NEt24′NH2, 4′-amino-7-diethylamino-benzopyrylium]", "values": [{"measurement": "Molar absorption coefficient ɛ at 630 nm", "setting": "[1]; DMSO", "result": 5687, "unit": "M⁻¹ cm⁻¹"}, {"measurement": "Molar absorption coefficient ɛ at 630 nm", "setting": "[1]; Ethanol", "result": 2225, "unit": "M⁻¹ cm⁻¹"}, {"measurement": "Molar absorption coefficient ɛ at 630 nm", "setting": "[1]; Methanol", "result": 1682, "unit": "M⁻¹ cm⁻¹"}, {"measurement": "^1O2 production", "setting": "[2]", "result": "173.1 ± 15.73", "unit": "%"}, {"measurement": "Uptake amount, range over the initial concentrations", "setting": "HaCaT cells [3]", "result": "1.229–2.192%"}, {"measurement": "% Uptake ± SEM", "setting": "HaCaT cells [3]; initial concentration 6.25 μM", "result": "1.229 ± 0.296", "unit": "%"}, {"measurement": "% Uptake ± SEM", "setting": "HaCaT cells [3]; initial concentration 12.5 μM", "result": "1.828 ± 0.419", "unit": "%"}, {"measurement": "% Uptake ± SEM", "setting": "HaCaT cells [3]; initial concentration 25 μM", "result": "1.977 ± 0.581", "unit": "%"}, {"measurement": "% Uptake ± SEM", "setting": "HaCaT cells [3]; initial concentration 50 μM", "result": "2.192 ± 0.662", "unit": "%"}, {"measurement": "% Uptake ± SEM", "setting": "HaCaT cells [3]; initial concentration 100 μM", "result": "1.785 ± 0.383", "unit": "%"}, {"measurement": "ROS production upon white light irradiation (in words)", "setting": "HaCaT cells [4]", "result": "positive modulation of ROS production"}, {"measurement": "Maximum absorption wavelength of the flavylium cation", "setting": "[5]", "result": 575, "unit": "nm"}]}, {"smiles": "CCN(CC)c1ccc2ccc(-c3ccc(N(C)C)cc3)[o+]c2c1", "note": "[7NEt24′NMe2, 7-diethylamino-4′-dimethylamino-benzopyrylium]", "values": [{"measurement": "Molar absorption coefficient ɛ at 630 nm", "setting": "[1]; DMSO", "result": "11,031 M^−1 cm^−1"}, {"measurement": "Molar absorption coefficient ɛ at 630 nm", "setting": "[1]; Ethanol", "result": "10,725 M^−1 cm^−1"}, {"measurement": "Molar absorption coefficient ɛ at 630 nm", "setting": "[1]; Methanol", "result": "8,720 M^−1 cm^−1"}, {"measurement": "^1O2 production", "setting": "[2]", "result": "131.2 ± 3.90", "unit": "%"}, {"measurement": "Uptake amount, range over the initial concentrations", "setting": "HaCaT cells [3]", "result": "2.745–4.156%"}, {"measurement": "% Uptake ± SEM", "setting": "HaCaT cells [3]; initial concentration 6.25 μM", "result": "3.416 ± 0.629", "unit": "%"}, {"measurement": "% Uptake ± SEM", "setting": "HaCaT cells [3]; initial concentration 12.5 μM", "result": "4.156 ± 0.764", "unit": "%"}, {"measurement": "% Uptake ± SEM", "setting": "HaCaT cells [3]; initial concentration 25 μM", "result": "2.745 ± 0.504", "unit": "%"}, {"measurement": "% Uptake ± SEM", "setting": "HaCaT cells [3]; initial concentration 50 μM", "result": "3.660 ± 0.831", "unit": "%"}, {"measurement": "% Uptake ± SEM", "setting": "HaCaT cells [3]; initial concentration 100 μM", "result": "3.523 ± 0.695", "unit": "%"}, {"measurement": "ROS production upon white light irradiation (in words)", "setting": "HaCaT cells [4]", "result": "positive modulation of ROS production"}, {"measurement": "Maximum absorption wavelength of the flavylium cation", "setting": "[5]", "result": 596, "unit": "nm"}]}]}
